“And” between values parts separate entries of the source, which are not always exact repeats. Identical values can stand only once. Toxic doses and inconclusive results are not listed. Cut-off read from the data, not from the text of the source: active = T/C of 150% or more; inactive = T/C below 125%.
System: L1210 leukemia ip in BDF1 mice, survival T/C
Assay: NCI In Vivo Anticancer Drug Screen. Data for tumor model L1210 Leukemia (intraperitoneal) in B6D2F1 (BDF1) mice
Conditions: endpoint: mean survival time, higher = longer survival
Procedure, shortened: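 Value reflects the ratio of survival in compound-treated mice to survival in vehicle-treated controls, with both groups carrying the same transplanted tumor.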

[1] = dose: 100.0 mg/kg/injection, schedule: Q01DX009 (ip), vehicle: saline with Tween-80
[2] = dose: 100.0 mg/kg/injection, schedule: Q04DX003 (ip), vehicle: saline with Tween-80
[3] = dose: 200.0 mg/kg/injection, schedule: Q01DX009 (ip), vehicle: saline with Tween-80
[4] = dose: 200.0 mg/kg/injection, schedule: Q04DX003 (ip), vehicle: saline with Tween-80
[5] = dose: 400.0 mg/kg/injection, schedule: Q01DX009 (ip), vehicle: saline with Tween-80
[6] = dose: 400.0 mg/kg/injection, schedule: Q04DX003 (ip), vehicle: saline with Tween-80
[7] = dose: 100.0 mg/kg/injection, schedule: Q01DX001 (ip), vehicle: saline with Tween-80
[8] = dose: 200.0 mg/kg/injection, schedule: Q01DX001 (ip), vehicle: saline with Tween-80
[9] = dose: 400.0 mg/kg/injection, schedule: Q01DX001 (ip), vehicle: saline with Tween-80
[10] = dose: 100.0 mg/kg/injection, schedule: Q04DX002 (ip), vehicle: Klucel (hydroxypropylcellulose) (HPC)
[11] = dose: 200.0 mg/kg/injection, schedule: Q04DX002 (ip), vehicle: Klucel (hydroxypropylcellulose) (HPC)
[12] = dose: 100.0 mg/kg/injection, schedule: Q01DX001 (ip), vehicle: saline
[13] = dose: 200.0 mg/kg/injection, schedule: Q01DX001 (ip), vehicle: saline
[14] = dose: 400.0 mg/kg/injection, schedule: Q04DX002 (ip), vehicle: Klucel (hydroxypropylcellulose) (HPC)
[15] = dose: 100.0 mg/kg/injection, schedule: Q01DX009 (ip), vehicle: saline
[16] = dose: 100.0 mg/kg/injection, schedule: Q04DX003 (ip), vehicle: saline
[17] = dose: 200.0 mg/kg/injection, schedule: Q01DX009 (ip), vehicle: saline
[18] = dose: 200.0 mg/kg/injection, schedule: Q04DX003 (ip), vehicle: saline
[19] = dose: 400.0 mg/kg/injection, schedule: Q01DX009 (ip), vehicle: saline
[20] = dose: 400.0 mg/kg/injection, schedule: Q04DX003 (ip), vehicle: saline
[21] = dose: 400.0 mg/kg/injection, schedule: Q01DX001 (ip), vehicle: saline

Measured: T/C

CCOc1ccc(C(=N)N2CCN(C)CC2)c2ccccc12
inactive: dose: 4.2 mg/kg/injection, schedule: Q01DX Z (ip), vehicle: methylcellulose (MC) 104 % of control | dose: 6.3 mg/kg/injection, schedule: Q01DX Z (ip), vehicle: methylcellulose (MC) 103 % of control | dose: 9.5 mg/kg/injection, schedule: Q01DX Z (ip), vehicle: methylcellulose (MC) 97 % of control | dose: 14.3 mg/kg/injection, schedule: Q01DX Z (ip), vehicle: methylcellulose (MC) 106 % of control

O=c1[nH]c(=O)n(CC(O)c2ccc(Cl)s2)cc1F (stereo not drawn)
inactive: [1] 100 % of control | [2] 100 % of control | [3] 101 % of control | [4] 96 % of control | [5] 95 % of control | [6] 97 % of control

CC1(OC(=O)c2ccc([N+](=O)[O-])cc2)CC2CCC1C2 (stereo not drawn)
inactive: [7] 98 % of control | [8] 91 % of control | [9] 104 % of control

O=C1c2cccc3cccc(c23)C(=O)N1CCCCCCCCN1C(=O)c2cccc3cccc(c23)C1=O
inactive: [10] 88 % of control | [11] 101 % of control

CC1(C)OB(C(Br)(B2OC(C)(C)C(C)(C)O2)B2OC(C)(C)C(C)(C)O2)OC1(C)C
inactive: dose: 100.0 mg/kg/injection, schedule: Q01DX001 (ip), vehicle: Klucel (hydroxypropylcellulose) (HPC) 100 % of control | dose: 200.0 mg/kg/injection, schedule: Q01DX001 (ip), vehicle: Klucel (hydroxypropylcellulose) (HPC) 100 % of control | dose: 400.0 mg/kg/injection, schedule: Q01DX001 (ip), vehicle: Klucel (hydroxypropylcellulose) (HPC) 108 % of control

Oc1ccccc1/C=N\N=C(N/N=C/c1ccccc1O)N/N=C/c1ccccc1O
inactive: dose: 15.0 mg/kg/injection, schedule: Q01DX Z (ip), vehicle: saline 98 % of control | dose: 30.0 mg/kg/injection, schedule: Q01DX Z (ip), vehicle: saline 102 % of control | dose: 60.0 mg/kg/injection, schedule: Q01DX Z (ip), vehicle: saline 102 % of control | dose: 120.0 mg/kg/injection, schedule: Q01DX Z (ip), vehicle: saline 96 % of control | dose: 120.0 mg/kg/injection, schedule: Q01DX Z (oral), vehicle: saline 95 % of control | dose: 240.0 mg/kg/injection, schedule: Q01DX Z (ip), vehicle: saline 101 % of control | dose: 240.0 mg/kg/injection, schedule: Q01DX Z (oral), vehicle: saline 90 % of control | dose: 480.0 mg/kg/injection, schedule: Q01DX Z (ip), vehicle: saline 95 % of control | dose: 480.0 mg/kg/injection, schedule: Q01DX Z (oral), vehicle: saline 92 % of control | dose: 960.0 mg/kg/injection, schedule: Q01DX Z (oral), vehicle: saline 90 % of control

Cc1ccc(O)c(CCCO)c1
inactive: dose: 50.0 mg/kg/injection, schedule: Q01DX001 (ip), vehicle: saline 97 % of control | [12] 105 % of control | [13] 94 % of control

CC(=O)Nc1ccc(NC(=S)NC(=O)COc2ccccc2)cc1
inactive: dose: 50.0 mg/kg/injection, schedule: Q04DX002 (ip), vehicle: saline with Tween-80 102 % of control and 105 % of control | [7] 107 % of control | [1] 102 % of control and 91 % of control | [2] 97 % of control | [8] 98 % of control | [3] 95 % of control and 98 % of control | [4] 90 % of control | [9] 97 % of control | [5] 101 % of control and 87 % of control | [6] 95 % of control

O=c1cc[n]2c(n1)[O][Hg]2
inactive: dose: 5.0 mg/kg/injection, schedule: Q01DX001 (ip), vehicle: carboxymethylcellulose (CMC) 98 % of control | dose: 10.0 mg/kg/injection, schedule: Q01DX001 (ip), vehicle: carboxymethylcellulose (CMC) 98 % of control

CCOP(=O)(OCC)OCc1ccc(C)cc1
inactive: [2] 94 % of control | [4] 102 % of control | [6] 97 % of control

CC(O)(c1ccccc1)C1C(c2ccccc2)N1Cc1ccccc1 (stereo not drawn)
inactive: dose: 100.0 mg/kg/injection, schedule: Q04DX003 (ip), vehicle: saline sonified 96 % of control | dose: 200.0 mg/kg/injection, schedule: Q04DX003 (ip), vehicle: saline sonified 94 % of control | dose: 400.0 mg/kg/injection, schedule: Q04DX003 (ip), vehicle: saline sonified 91 % of control

NC(=O)c1c(F)c(F)c(N)c(F)c1F
inactive: [10] 96 % of control | [11] 93 % of control | [14] 118 % of control

CCCCCCOP1(=O)C=C(C)CC1 (stereo not drawn)
inactive: [2] 93 % of control | [4] 90 % of control

COc1ccc(C=NCCc2ccc(OC)c(OC)c2)cc1OC
inactive: [15] 89 % of control | [16] 102 % of control | [17] 98 % of control | [18] 97 % of control | [19] 97 % of control | [20] 105 % of control

CN(C)CCCNc1nc(-c2cc(C(F)(F)F)cc(C(F)(F)F)c2)nc(C(Cl)(Cl)Cl)n1
inactive: [10] 100 % of control | [11] 92 % of control | [14] 106 % of control

CCC(C(=O)O)N1C(=O)c2ccccc2C1=O (stereo not drawn)
inactive: [12] 102 % of control | [13] 97 % of control | [21] 103 % of control

CCCCCCCN=C(N)c1ccc(C(=O)OC2CCCCC2)cc1
inactive: [12] 96 % of control

Cc1cccc(C(=O)Cl)c1[N+](=O)[O-]
inactive: dose: 50.0 mg/kg/injection, schedule: Q01DX001 (ip), vehicle: carboxymethylcellulose (CMC) 95 % of control | dose: 100.0 mg/kg/injection, schedule: Q01DX001 (ip), vehicle: carboxymethylcellulose (CMC) 93 % of control | dose: 200.0 mg/kg/injection, schedule: Q01DX001 (ip), vehicle: carboxymethylcellulose (CMC) 90 % of control | dose: 400.0 mg/kg/injection, schedule: Q01DX001 (ip), vehicle: carboxymethylcellulose (CMC) 95 % of control

COc1ccc(CNCC(=O)O)cc1
inactive: [15] 100 % of control | [16] 96 % of control | [17] 100 % of control | [18] 98 % of control | [19] 105 % of control | [20] 96 % of control

COc1cccc(NC(=S)/C(=C(/[O-])c2ccc([N+](=O)[O-])cc2)[n+]2ccccc2)c1
inactive: dose: 100.0 mg/kg/injection, schedule: Q01DX009 (ip), vehicle: Klucel (hydroxypropylcellulose) (HPC) 97 % of control | dose: 200.0 mg/kg/injection, schedule: Q01DX009 (ip), vehicle: Klucel (hydroxypropylcellulose) (HPC) 98 % of control | dose: 400.0 mg/kg/injection, schedule: Q01DX009 (ip), vehicle: Klucel (hydroxypropylcellulose) (HPC) 94 % of control

O=S(=O)(CC(Cl)c1ccccc1)c1ccc(F)cc1 (stereo not drawn)
inactive: [12] 109 % of control | [15] 91 % of control | [16] 91 % of control | [13] 100 % of control | [17] 110 % of control | [18] 97 % of control | [21] 97 % of control | [19] 99 % of control | [20] 98 % of control

CCCCOB(OCCCC)c1ccc(SC)cc1
inactive: dose: 100.0 mg/kg/injection, schedule: Q04DX003 (ip), vehicle: alcohol 111 % of control | dose: 200.0 mg/kg/injection, schedule: Q04DX003 (ip), vehicle: alcohol 103 % of control | dose: 400.0 mg/kg/injection, schedule: Q04DX003 (ip), vehicle: alcohol 118 % of control

CCCCCCN1C(=O)c2ccccc2S1(=O)=O
inactive: dose: 222.0 mg/kg/injection, schedule: Q01DX Z (ip), vehicle: methylcellulose (MC) 101 % of control | dose: 333.0 mg/kg/injection, schedule: Q01DX Z (ip), vehicle: methylcellulose (MC) 113 % of control | dose: 500.0 mg/kg/injection, schedule: Q01DX Z (ip), vehicle: methylcellulose (MC) 100 % of control

CCCOCC(O)C[As](=O)(O)c1cccc(Cl)c1 (stereo not drawn)
inactive: dose: 6.25 mg/kg/injection, schedule: Q01DX001 (ip), vehicle: saline with Tween-80 104 % of control | dose: 12.5 mg/kg/injection, schedule: Q01DX001 (ip), vehicle: saline with Tween-80 102 % of control | dose: 25.0 mg/kg/injection, schedule: Q01DX001 (ip), vehicle: saline with Tween-80 100 % of control
